Experiment [1] relates to Escherichia coli. Briefly: Germicidal effect after 808 nm laser irradiation, culture on solid medium and counting. Format: cell-based. How it is done: (§1) A preparation method for a nucleic acid functionalized metal nanoprobe includes: • (1) deoxyribonucleic acid (DNA) molecules are fully mixed with a diluted nucleic acid intercalator SYBR Green I (2.5×), and a mixture is placed at a room temperature to react in dark for 30 min. • (2) a reaction product of step (1) is fully mixed with 100 μmol/L chloroauric acid solution to obtain a mixed solution A. • (3) the mixed solution A and Escherichia coli are continuously co-incubated in a constant-temperature shaking table for 1 h-12 h to obtain a mixed solution B. A normal control group (a chloroauric acid solution having the same concentration as the experimental group is merely added) and a blank group (an Escherichia coli suspension without any treatment) are set. After incubation, a small amount of the above mixed solution are dripped into the slide glass, and mounting is performed with a cover glass. • (4) A slide glass is placed under a laser confocal fluorescence microscope to be activated. Further, the above mixture is irradiated with 808 nm laser for 5-10 min, is cultured on a solid medium, and counted.

Experiment [2] deals with Escherichia coli. In words: Fluorescence imaging of co-incubated bacteria under laser confocal fluorescence microscope. Format: cell-based. As for the experimental part: as §1

On to `[Au+3].[Cl-].[Cl-].[Cl-].[Cl-].[H+]` [chloroauric acid], for which the “germicidal (antibacterial) effect” value in experiment [1] (808 nm laser 5-10 min, cultured on solid medium and counted, metal cation 100 μmol/L) is on record as “most of Escherichia coli is killed”. Also, in experiment [1] (method of Example 1, 0-300 μmol/L (FIG. 3)), the “sterilization effect with increase of concentration” value is “gradually enhanced”. In addition, the “fluorescence / signal intensity” value in experiment [2] (co-incubated with Escherichia coli 1 h-12 h, metal cation 100 μmol/L) was “weak fluorescence”. In experiment [2] (method of Example 1, 0, 10, 50, 100, 200, 300 μmol/L tested (FIG. 2)), the “concentration at which signal intensity reaches maximum / does not increase any more” value was 100 µmol/L. Besides, the “signal intensity with increase of concentration” value in experiment [2] (method of Example 1, 0-300 μmol/L (FIG. 2)) was “enhanced”.

The values above are taken from patent publication US20240240078A1, “NUCLEIC ACID FUNCTIONALIZED METAL NANOPROBE AND PREPARATION METHOD THEREFOR” (SOUTHEAST UNIVERSITY, priority 2021, published 2024).
